From PubChem BioAssay AID1745844 (Carcinogenic Potency Database (CPDB), 2022)
Where “and” joins values, the source holds several entries; their conditions need not be identical. Equal values may be shown once. Calls of active or inactive are those of the source. How the calls were made is not given here.

System: rodent lifetime carcinogenesis bioassay, tumor incidence TD50
Assay: chronic cancer bioassays in animals – CPDB, compiled studies (AID 1745844)

## ClC1=C(Cl)[C@]2(Cl)[C@@H]3[C@@H]4C[C@@H]([C@H]5O[C@@H]45)[C@@H]3[C@@]1(Cl)C2(Cl)Cl
hamster, strain Syrian Golden, females, in feed, site: any site (literature study), lesion: several types, types named in the paper, dosed 100 weeks, study length 114 weeks
  TD50: 355 mg/kg/day (inactive)
hamster, strain Syrian Golden, females, in feed, site: liver, lesion: hepatoma, dosed 100 weeks, study length 114 weeks
  TD50: 176 mg/kg/day (inactive)
hamster, strain Syrian Golden, females, in feed, site: lung, lesion: one or several types, types not named, dosed 100 weeks, study length 114 weeks
  carcinogen call: negative (inactive)
hamster, strain Syrian Golden, males, in feed, site: any site (literature study), lesion: several types, types named in the paper, dosed 114 weeks, study length 114 weeks
  TD50: 69.9 mg/kg/day (inactive)
hamster, strain Syrian Golden, males, in feed, site: liver, lesion: hepatoma, dosed 114 weeks, study length 114 weeks
  TD50: 198 mg/kg/day (inactive)
hamster, strain Syrian Golden, males, in feed, site: lung, lesion: adenoma, dosed 114 weeks, study length 114 weeks
  TD50: 732 mg/kg/day (inactive)
mouse, strain B6C3F1, females, in feed, site: any site (literature study), lesion: several types, types named in the paper, dosed 80 weeks, study length 91 weeks
  carcinogen call: negative (inactive)
mouse, strain B6C3F1, females, in feed, site: liver, lesion: hepatocellular adenoma + hepatocellular carcinoma + neoplastic nodule, dosed 80 weeks, study length 91 weeks
  TD50: 1.09 mg/kg/day
mouse, strain B6C3F1, females, in feed, site: lung, lesion: alveolar/bronchiolar adenoma + alveolar/bronchiolar carcinoma, dosed 80 weeks, study length 91 weeks
  TD50: 5.05 mg/kg/day
mouse, strain B6C3F1, males, in feed, site: any site (literature study), lesion: several types, types named in the paper, dosed 80 weeks, study length 91 weeks
  TD50: 1.06 mg/kg/day (inactive)
mouse, strain B6C3F1, males, in feed, site: liver, lesion: hepatocellular adenoma + hepatocellular carcinoma + neoplastic nodule, dosed 80 weeks, study length 91 weeks
  TD50: 1.04 mg/kg/day
mouse, strain B6C3F1, males, in feed, site: liver, lesion: hepatocellular carcinoma, dosed 80 weeks, study length 89 weeks
  TD50: 1.35 mg/kg/day
mouse, strain B6C3F1, males, in feed, site: lung, lesion: alveolar/bronchiolar adenoma + alveolar/bronchiolar carcinoma, dosed 80 weeks, study length 91 weeks
  TD50: 24.7 mg/kg/day
mouse, strain C3HeB/Fe, both sexes, in feed, site: any site (literature study), lesion: benign tumor, dosed 104 weeks, study length 104 weeks
  TD50: 3.1 mg/kg/day
mouse, strain C3HeB/Fe, both sexes, in feed, site: liver, lesion: hepatocellular adenoma, dosed 104 weeks, study length 104 weeks
  TD50: 4.09 mg/kg/day
mouse, strain C3HeB/Fe, both sexes, in feed, site: liver, lesion: hepatocellular carcinoma, dosed 104 weeks, study length 104 weeks
  TD50: 167 mg/kg/day
mouse, strain C3HeB/Fe, both sexes, in feed, site: liver, lesion: hepatoma, dosed 104 weeks, study length 104 weeks
  TD50: 3.08 mg/kg/day
mouse, strain CF-1, females, in feed, site: liver, lesion: liver-cell tumor, type B, dosed 90 weeks, study length 90 weeks
  TD50: 2.59 mg/kg/day
mouse, strain CF-1, females, in feed, site: liver, lesion: liver-cell tumor, type B, dosed 106 weeks, study length 106 weeks
  TD50: 3.96 mg/kg/day
mouse, strain CF-1, females, in feed, site: liver, lesion: liver-cell tumor, type B, dosed 108 weeks, study length 128 weeks
  TD50: 9.72 mg/kg/day
mouse, strain CF-1, females, in feed, site: liver, lesion: liver-cell tumor, type B, dosed 122 weeks, study length 138 weeks
  TD50: 1.96 mg/kg/day
mouse, strain CF-1, females, in feed, site: liver, lesion: liver-cell tumor, type B, dosed 128 weeks, study length 128 weeks
  TD50: 12.1 mg/kg/day
mouse, strain CF-1, females, in feed, site: liver, lesion: liver-cell tumor, dosed 110 weeks, study length 110 weeks
  TD50: 1.59 mg/kg/day
mouse, strain CF-1, females, in feed, site: liver, lesion: several types, types named in the paper, dosed 90 weeks, study length 90 weeks
  TD50: 1.05 mg/kg/day
mouse, strain CF-1, females, in feed, site: liver, lesion: several types, types named in the paper, dosed 106 weeks, study length 106 weeks
  TD50: 1.16 mg/kg/day
mouse, strain CF-1, females, in feed, site: liver, lesion: several types, types named in the paper, dosed 108 weeks, study length 128 weeks
  TD50: 1.49 mg/kg/day
mouse, strain CF-1, females, in feed, site: liver, lesion: several types, types named in the paper, dosed 110 weeks, study length 110 weeks
  TD50: 0.567 mg/kg/day
mouse, strain CF-1, females, in feed, site: liver, lesion: several types, types named in the paper, dosed 122 weeks, study length 138 weeks
  TD50: 0.642 mg/kg/day
mouse, strain CF-1, females, in feed, site: liver, lesion: several types, types named in the paper, dosed 128 weeks, study length 128 weeks
  TD50: 3.11 mg/kg/day
mouse, strain CF-1, females, in feed, site: lung, lesion: adenoma, dosed 90 weeks, study length 90 weeks
  carcinogen call: negative (inactive)
mouse, strain CF-1, females, in feed, site: lung, lesion: adenoma, dosed 106 weeks, study length 106 weeks
  TD50: 5.69 mg/kg/day (inactive)
mouse, strain CF-1, females, in feed, site: lung, lesion: adenoma, dosed 108 weeks, study length 128 weeks
  carcinogen call: negative (inactive)
mouse, strain CF-1, females, in feed, site: lung, lesion: adenoma, dosed 122 weeks, study length 138 weeks
  TD50: 0.606 mg/kg/day (inactive)
mouse, strain CF-1, females, in feed, site: lung, lesion: adenoma, dosed 128 weeks, study length 128 weeks
  carcinogen call: negative (inactive)
mouse, strain CF-1, females, in feed, site: lung, lesion: carcinoma, dosed 90 weeks, study length 90 weeks
  carcinogen call: negative (inactive)
mouse, strain CF-1, females, in feed, site: lung, lesion: carcinoma, dosed 106 weeks, study length 106 weeks
  carcinogen call: negative (inactive)
mouse, strain CF-1, females, in feed, site: lung, lesion: carcinoma, dosed 108 weeks, study length 128 weeks
  carcinogen call: negative (inactive)
mouse, strain CF-1, females, in feed, site: lung, lesion: carcinoma, dosed 122 weeks, study length 138 weeks
  TD50: 1.78 mg/kg/day (inactive)
mouse, strain CF-1, females, in feed, site: lung, lesion: carcinoma, dosed 128 weeks, study length 128 weeks
  carcinogen call: negative (inactive)
mouse, strain CF-1, females, in feed, site: lung, lesion: one or several types, types not named, dosed 110 weeks, study length 110 weeks
  carcinogen call: negative (inactive)
mouse, strain CF-1, males, in feed, site: liver, lesion: liver-cell tumor, type B, dosed 110 weeks, study length 124 weeks
  TD50: 4.02 mg/kg/day
mouse, strain CF-1, males, in feed, site: liver, lesion: liver-cell tumor, type B, dosed 112 weeks, study length 128 weeks
  TD50: 4.66 mg/kg/day
mouse, strain CF-1, males, in feed, site: liver, lesion: liver-cell tumor, type B, dosed 120 weeks, study length 134 weeks
  TD50: 1.68 mg/kg/day
mouse, strain CF-1, males, in feed, site: liver, lesion: liver-cell tumor, type B, dosed 128 weeks, study length 128 weeks
  TD50: 5.12 mg/kg/day and 6.58 mg/kg/day
mouse, strain CF-1, males, in feed, site: liver, lesion: liver-cell tumor, dosed 110 weeks, study length 110 weeks
  TD50: 1.28 mg/kg/day
mouse, strain CF-1, males, in feed, site: liver, lesion: several types, types named in the paper, dosed 110 weeks, study length 110 weeks
  carcinogen call: positive
mouse, strain CF-1, males, in feed, site: liver, lesion: several types, types named in the paper, dosed 110 weeks, study length 124 weeks
  TD50: 0.713 mg/kg/day
mouse, strain CF-1, males, in feed, site: liver, lesion: several types, types named in the paper, dosed 112 weeks, study length 128 weeks
  TD50: 1.12 mg/kg/day
mouse, strain CF-1, males, in feed, site: liver, lesion: several types, types named in the paper, dosed 120 weeks, study length 134 weeks
  TD50: 0.547 mg/kg/day
mouse, strain CF-1, males, in feed, site: liver, lesion: several types, types named in the paper, dosed 128 weeks, study length 128 weeks
  TD50: 0.913 mg/kg/day and 1.91 mg/kg/day
mouse, strain CF-1, males, in feed, site: lung, lesion: adenoma, dosed 110 weeks, study length 124 weeks
  carcinogen call: negative (inactive)
mouse, strain CF-1, males, in feed, site: lung, lesion: adenoma, dosed 112 weeks, study length 128 weeks
  carcinogen call: negative (inactive)
mouse, strain CF-1, males, in feed, site: lung, lesion: adenoma, dosed 120 weeks, study length 134 weeks
  TD50: 2.13 mg/kg/day (inactive)
mouse, strain CF-1, males, in feed, site: lung, lesion: adenoma, dosed 128 weeks, study length 128 weeks
  carcinogen call: negative (inactive)
mouse, strain CF-1, males, in feed, site: lung, lesion: carcinoma, dosed 110 weeks, study length 124 weeks
  carcinogen call: negative (inactive)
mouse, strain CF-1, males, in feed, site: lung, lesion: carcinoma, dosed 112 weeks, study length 128 weeks
  carcinogen call: negative (inactive)
mouse, strain CF-1, males, in feed, site: lung, lesion: carcinoma, dosed 120 weeks, study length 134 weeks
  TD50: 3.71 mg/kg/day (inactive)
mouse, strain CF-1, males, in feed, site: lung, lesion: carcinoma, dosed 128 weeks, study length 128 weeks
  carcinogen call: negative (inactive)
mouse, strain CF-1, males, in feed, site: lung, lesion: one or several types, types not named, dosed 110 weeks, study length 110 weeks
  carcinogen call: negative (inactive)
rat, strain CFE, females, in feed, site: any site (literature study), lesion: several types, types named in the paper, dosed 104 weeks, study length 104 weeks
  carcinogen call: negative (inactive)
rat, strain CFE, males, in feed, site: any site (literature study), lesion: several types, types named in the paper, dosed 104 weeks, study length 104 weeks
  TD50: 2.01 mg/kg/day (inactive)
rat, strain Fischer 344, females, in feed, site: any site (literature study), lesion: several types, types named in the paper, dosed 105 weeks, study length 104 weeks
  TD50: 489 mg/kg/day (inactive)
rat, strain Fischer 344, males, in feed, site: any site (literature study), lesion: several types, types named in the paper, dosed 105 weeks, study length 104 weeks
  TD50: 7.28 mg/kg/day (inactive)
rat, strain Not specified, females, in feed, site: any site (literature study), lesion: one or several types, types not named, dosed 104 weeks, study length 104 weeks
  TD50: 57.2 mg/kg/day (inactive)
rat, strain Not specified, males, in feed, site: any site (literature study), lesion: one or several types, types not named, dosed 104 weeks, study length 104 weeks
  TD50: 40.5 mg/kg/day (inactive)
rat, strain Osborne-Mendel, both sexes, in feed, site: any site (literature study), lesion: several types, types named in the paper, dosed 104 weeks, study length 104 weeks
  carcinogen call: positive
rat, strain Osborne-Mendel, females, in feed, site: adrenal gland, lesion: cortical adenoma + cortical carcinoma, dosed 90 weeks, study length 109 weeks
  TD50: 4.42 mg/kg/day (inactive)
rat, strain Osborne-Mendel, females, in feed, site: any site (literature study), lesion: several types, types named in the paper, dosed 90 weeks, study length 110 weeks
  carcinogen call: negative (inactive)
rat, strain Osborne-Mendel, females, in feed, site: any site (literature study), lesion: several types, types named in the paper, dosed 121 weeks, study length 126 weeks
  carcinogen call: negative (inactive)
rat, strain Osborne-Mendel, females, in feed, site: liver, lesion: hepatocellular adenoma + hepatocellular carcinoma + neoplastic nodule, dosed 90 weeks, study length 110 weeks
  TD50: 38.4 mg/kg/day
rat, strain Osborne-Mendel, females, in feed, site: liver, lesion: one or several types, types not named, dosed 121 weeks, study length 126 weeks
  carcinogen call: negative (inactive)
rat, strain Osborne-Mendel, males, in feed, site: any site (literature study), lesion: several types, types named in the paper, dosed 90 weeks, study length 110 weeks
  TD50: 3.34 mg/kg/day (inactive)
rat, strain Osborne-Mendel, males, in feed, site: any site (literature study), lesion: several types, types named in the paper, dosed 126 weeks, study length 126 weeks
  carcinogen call: negative (inactive)
rat, strain Osborne-Mendel, males, in feed, site: liver, lesion: hemangioma, dosed 126 weeks, study length 126 weeks
  carcinogen call: negative (inactive)

## CCCCCCCN
rat, strain Wistar, males, in drinking water, site: any site (literature study), lesion: several types, types named in the paper, dosed 61 weeks, study length 61 weeks
  carcinogen call: negative (inactive)
